The results in this text go back to patent US20060246005A1, “Poly(peptide) as a chelator: methods of manufacture and uses” (THE BOARD OF REGENTS OF THE UNIVERSITY OF TEXAS SYSTEM, priority 2005, published 2006).

This test concerns mammary tumor derived from RBA CRL-1747 cell line. As to the kind of experiment: Scintigraphic (planar) imaging in breast tumor-bearing rats. In kind it is in vivo, rat. The note with it: 0.5-4 hrs post-injection. From the text: The camera field of view is 20 cm×20 cm with an edge of 1.3 cm. The intrinsic spatial resolution is 3 mm and the matrix is 64×64.
To ascertain whether the tumor uptake by with ^99mTc-GAP-EDL was related to estrogen receptors, we performed a blocking study. […] Computer outlined regions of interest (ROI) (counts per pixel) were used to determine tumor-to-background count density ratios.
Scintigraphic images were obtained at 0.5-4.0 hrs after i.v. injection of ^99mTc-GAP-COX2i (300 μCi/rat, iv) and imaged at 0.5-4.0 hrs in mammary tumor-bearing rats (derived from RBA CRL-1747 cell line). Whole-body autoradiograms were obtained by a quantitative image analyzer (Cyclone Storage Phosphor System, Packard, Meridian, Conn.). Following intravenous injection of ^99mTc-GAP-COX2i (100 μCi/rat, iv), athymic nude mice bearing human uterine sarcoma in the right leg were killed at 1 hour and the body was fixed in carboxymethyl cellulose (3%). […] Each section was thawed and mounted on a slide. […]
Scintigraphic images were obtained at 0.5-4.0 hrs after i.v. injection of ^99“Tc-GAP-LAS or GAP-HCD (300 μCi/rat, iv) and imaged at 0.5-4.0 hrs in mammary tumor-bearing rats (derived from RBA CRL-1747 cell line). Whole-body autoradiogramrs were obtained by a quantitative image analyzer (Cyclone Storage Phosphor System, Packard, Meridian, Conn.). […]

On to `O=C([O-])CN(CCN(CC(=O)[O-])CC(=O)[O-])CCN(CC(=O)[O-])CC(=O)[O-].[99Tc+4]` [^99mTc-DTPA], for which the “tumor visualization on scintigraphic images” value is reported as “tumor could be visualized”.
